Assay results taken from paper PMC12702354, “Engineered an ultrasmall curcumin oral nanoformulation restores intestinal integrity and gut microbiota dysbiosis” (Materials Today Bio, 2025).
Where two headings read alike, the source gives them in different places.

Experiments:
Caco-2 cell monolayer = test: TEER of Caco-2 cell monolayer; format: cell-based, human; conditions: applied apically 120 min, then removed
Description: First, 5 × 10^4 Caco-2 cells/well, as a gastrointestinal epithelium model were cultured in transwell plates (Thermo Fisher, India) with a pore size of 0.4 μm. Once the TEER values attained 500 Ω cm^2, the cell monolayers were utilized for the subsequent experiments. Initially, mucin (10 mg/mL PBS) was introduced into the apical medium to mimic the occurrence of mucus, whereas PBS without mucin was utilized to represent the condition lacking mucus. Subsequently, IF (20 μL, 100 IU/mL) and 200 μL of CUR formulations (1 mg/mL) were introduced into the upper chambers. While incubating in a water bath at 37 °C, samples were taken from the lower chambers for analysis at various time intervals. A portion of the basolateral medium was taken out and examined using RP-HPLC to quantify the CUR content. The Papp of CUR was determined using the method outlined in a previous study. To analyze intracellular uptake, cells were gathered and underwent multiple freeze-thaw cycles prior to being lysed for 60 min. The concentration of CUR taken up by the cells was assessed using HPLC. Additionally, TEER measurements were recorded to evaluate the effect of CUR formulations on the monolayer's integrity. The baseline TEER readings for the Caco-2 cell layer were recorded. The apical media were then substituted with CUR formulations (200 μL). […] The Papp values for CUR were calculated.

[1] = tested on: VAN-induced C57BL/6J mouse model; test: VAN-induced intestinal epithelial barrier dysfunction and gut inflammation model; conditions: 50 mg/kg oral daily, 10 days after VAN
Description: This was succeeded by a daily oral administration of 50 mg/kg UsNFs of CUR for another 10 days, whereas the control group (CON) received standard rodent feed and water (Fig. 5A).

gut microbiota = test: 16S rRNA gene sequencing of gut microbiota in VAN-induced mice; format: in vivo, C57BL/6 mice; conditions: heat map-cluster and qPCR analysis
From the text: Faecal microbial genomic DNA was isolated and quantified as described elsewhere. Universal primers were employed to facilitate the amplification of the V3 and V4 domains of the 16S rRNA gene. The obtained amplicons were normalized, aligned to create the sequencing library, and sequenced on an Illumina MiSeq (San Diego, USA). The raw data of 16S rRNA gene sequences were filtered based on high error probability (>0.01) and analyzed by QIIME version (1.9.1). We generated OTUs at an identity threshold of 97 % using UPARSE (version 7.0.1001). NMDS plots were developed using PAST version 2.17 [44]. Heatmap profiles were constructed using R Studio software version 3.6.1. To examine the differentially abundant biomarkers between the different groups, LEfSe analysis was performed. Spearman correlational studies were performed to assess the correlations between VAN-induced inflammation-related parameters and gut bacteria and metabolites.

[2] = Dose determination: body weight and liver weight; format: in vivo, C57BL/6 mice; conditions: for Final body weight / Liver weight / Rel. liver weight: n = 12
Description: We first determined the doses of UsNFs and free-CUR in eight-week-old female C57BL/6 mice before systematically evaluating the retention of UsNFs in the GIT and PK of CUR. […] Consequently, 50 mg/kg was identified as the optimal dosage for subsequent in vivo therapeutic assessment of both UsNFs and free-CUR, achieving a balance between efficacy potential, safety, and physiological tolerance.

[3] = PK study after oral gavage; format: in vivo, C57BL/6J mice; conditions: 50 mg/kg
[4] = male, C57BL/6J, mouse, CUR in plasma, n = 6
[5] = male, C57BL/6J, mouse, plasma, n = 6

Cmax ([3]; CUR in plasma, n = 6): 7.126 ± 0.317 ng/mL | AUC(0-inf) [3, 4]: 10.4 ± 0.683 ng·h/mL | AUC(0-t) [3, 4]: 7.68 ± 0.218 ng·h/mL | Tmax [3, 5]: 30 min | half-life [3, 5]: 64.6 ± 8.22 min | k el ([3]; male, C57BL/6J, mouse, plasma, n = 6, read-out: Ke (converted)): 5.25e-05 s⁻¹ | Cmax ([3]; male, C57BL/6J, mouse, plasma, po, CUR in plasma, n = 6, read-out: Cmax): ~7.13 ng/mL | Bioavailability ([3]; relative to free-CUR, n = 6): 100.00 ± 29.388%
Structure (SMILES): COc1cc(/C=C/C(=O)CC(=O)/C=C/c2ccc(O)c(OC)c2)ccc1O [free-CUR, curcumin]
TEER change of cell monolayer (Caco-2 cell monolayer): kept the TEER steady | Colon length [1]: no significant decrease | MDA levels [1]: only partially diminished | Restoring effect on VAN-altered GM (gut microbiota): did not show any significant restoring effects | Final body weight or relative liver weight compared to normal control ([2]; 25 mg/kg and 50 mg/kg): no significant differences | Final body weight ([2]; 25 mg/kg): 22.02 ± 0.15 g | Liver weight ([2]; 25 mg/kg): 1.06 ± 0.036 g | Rel. liver weight ([2]; 25 mg/kg): 4.81 ± 0.11 Liver wt/100 g b.wt | Final body weight ([2]; 50 mg/kg): 21.6 ± 0.19 g | Liver weight ([2]; 50 mg/kg): 1.05 ± 0.022 g | Rel. liver weight ([2]; 50 mg/kg): 4.86 ± 0.23 Liver wt/100 g b.wt | Final body weight ([2]; 75 mg/kg): 16.2 ± 0.21 g | Liver weight ([2]; 75 mg/kg): 1.19 ± 0.038 g | Rel. liver weight ([2]; 75 mg/kg): 7.34 ± 0.16 Liver wt/100 g b.wt
